We go through 1 compound from patent US8557864B2, “Agent having neurotrophic factor-like activity” (Nagoya Industrial Science Research Institute, priority 2007, dated 2013).

For assay [1], the system named is MAP kinase. Description: Phosphorylated MAP kinase amount in cortex of frontal lobe and hippocampus of stressed mice. The class given is in vivo. The note with it: 24 hours after 3 weeks of stress with 20, 100, 500 μg/kg, at least one administration example. The protocol:
After 24 hours from completion of stress for 3 weeks in the same method as described in Example 2, mice administered with the compound 8 in doses of 0, 20, 100 and 500 μg/kg respectively at the same time as stress and non-stressed mice administered with only a phosphoric acid buffer containing 0.1% DMSO were sacrificed and the cortexes of frontal lobes and hippocampi were excised respectively, and thereto were added RIPA buffers in 19 times of an amount of each wet weight.
Then, sonication was performed by an ultrasonic grinder until tissues cannot be seen, centrifuged at 12000 rpm for 15 minutes, and the supernatant was recovered to form a tissue protein extraction solution. The protein concentration of the extraction solution was measured using a BCA Protein Assay Kit (TAKARA BIO INC.), each of extraction solutions containing 3 μg for a MAP kinase and 5 μg for a phosphorylated MAP kinase was added with a ⅓ amount of a sample buffer for electrophoresis at 4 times of a concentration, and a 1/10 amount of 2-mercaptoethanol and thermally treated at 95° C. for 5 minutes and subjected to electrophoresis with a 10% SDS polyacrylic amide gel. […]

Assay [2] relates to mRNAs of BDNF, NT-3, NGF and GR. Description: mRNA expression of neurotrophic factors and glucocorticoid receptor in cortex of frontal lobe and hippocampus. The class given is in vivo, mice. Conditions: 24 hours after 3 weeks of stress with compound 8, RT-PCR relative to β actin. The protocol:
mRNA expressions of a brain-derived neurotrophic factor (hereinafter expressed as “BDNF”), neurotrophin-3 (hereinafter expressed as “NT-3”), a nervous growth factor (hereinafter expressed as “NGF”) and a glucocorticoid receptor (hereinafter expressed as “GR”) in a cortex of frontal lobe and a hippocampus of a mouse after stress were examined as follows. After 24 hours from completion of stress for 3 weeks in the same method as described in Example 2, mice administered with the compound 8 in each of the amounts of 0, 20, 100 and 500 μg/kg, at the same time as stress, and non-stressed mice administered with only a phosphoric acid buffer containing 0.1% DMSO were sacrificed and the cortexes of frontal lobes and hippocampi were excised respectively, and thereto were added TriZol. […]
The obtained precipitate was washed with 70% ethanol, dried and then dissolved in TE to form a total RNA sample. […] The fluorescence intensity of the band was read with a densitometer to digitalize and the obtained value was divided with a fluorescence intensity of a band of RT-PCR of β actin mRNA of an internal standard, which has been found separately, and a graph was formed assuming that the band value of a non-stressed mouse/β actin band value was 1.0. […]

Turning to `CCCCCCC/C=C/C(=O)OCC` [Compound 8, trans-2-decenoic acid ethyl ester], the “phosphorylated MAP kinase amount compared to control (0 μg/kg)” value in assay [1] is given as “significantly increased”. In addition, in assay [2], the “expression of mRNAs of BDNF, NT-3, NGF and GR” value was “returned to the level of non-stressed examples”.
